The results in this text go back to ChEMBL document CHEMBL1128316, “Alkane-6,8-diol: inhibitor of tumor promotion in two-stage carcinogenesis in mouse skin” (1995).

For one assay, the system named is Mus musculus. In words: Inhibition of TPA-induced inflammatory ear edema in mice(compound was applied 30 min before TPA […],Ear thickness was determined 6 hr after TPA treatment). Format: functional.
Assay [1] is described as follows: Inhibitory ratio at 1.0 mg/ear. Type of assay: functional.

The molecule `CCCCCCCCCCCCCCCCCCCC(O)CC(O)CCCCC` (stereo unspecified) had an ID50 in the assay on Mus musculus of 0.5 mg ear-1. For the same molecule, in assay [1], the Ratio is recorded as less than 82.
`CCCCCCCC(O)CC(O)CCCCC` (stereo unspecified): in assay [1], the Ratio was 23.
`CCCCCCCCCCCCCCCCCCCCCC(O)CC(O)CCCCC` (stereo unspecified): the ID50 in the assay on Mus musculus is 0.4 mg ear-1. Also, the Ratio in assay [1] is given as less than 85.
`C[C@]12CCC(=O)C=C1CCC1[C@@H]2[C@@H](O)C[C@@]2(C)[C@H]1CC[C@]2(O)C(=O)CO` (single isomer, unassigned) [HYDROCORTISONE] registered an ID50 in the assay with Mus musculus of 0.03 mg ear-1. Moreover, the Ratio in assay [1] is on record as less than 99.
On to `COc1ccc2c(c1)c(CC(=O)O)c(C)n2C(=O)c1ccc(Cl)cc1` [INDOMETHACIN], for which the ID50 in the assay with Mus musculus is reported as 0.3 mg ear-1. The Ratio in assay [1] is less than 96.
For the molecule `O=c1c(O)c(-c2ccc(O)c(O)c2)oc2cc(O)cc(O)c12` [QUERCETIN], the ID50 with Mus musculus came out at 1.6 mg ear-1. Further, the Ratio in assay [1] was less than 40.
